Measured values: article PMC7029851, “Antibacterial activity of novel dual bacterial DNA type II topoisomerase inhibitors” (PLoS ONE, 2020)
Where a name gives a salt, the structure may show the parent alone.

How the values were obtained:
A. baumannii APV00473 = test: MIC, broth microdilution; format: cell-based; conditions: Acinetobacter baumannii; A. baumannii APV00473, ciprofloxacin-resistant
Procedure: (§1) MICs were determined by the broth microdilution method (the agar dilution method was used only for N. gonorrhoeae) according to CLSI guidelines.

A. baumannii ATCC 19606 = test: MIC, broth microdilution; format: cell-based; conditions: Acinetobacter baumannii, ATCC19606; A. baumannii ATCC 19606, ciprofloxacin-susceptible
Procedure: as §1

E. coli 4SI = test: MIC, broth microdilution; format: cell-based; conditions: Escherichia coli, ciprofloxacin-resistant
Procedure: as §1

S. pyogenes APV00074 = test: MIC, broth microdilution; format: cell-based; conditions: Streptococcus pyogenes; S. pyogenes APV00074, ciprofloxacin-susceptible
Procedure: as §1

S. pyogenes APV00083 = test: MIC, broth microdilution; format: cell-based; conditions: Streptococcus pyogenes; S. pyogenes APV00083, ciprofloxacin-susceptible
Procedure: as §1

C. difficile ATCC 700057 = test: MIC, broth microdilution; format: cell-based, Clostridium difficile; conditions: Clostridioides difficile, ATCC700057
Procedure: MICs were determined by the broth microdilution method (the agar dilution method was used only for N. gonorrhoeae) according to CLSI guidelines. […] The MIC values of antibiotics used in clinical practice were interpreted according to the susceptibility interpretive criteria reported in the appropriate CLSI Tables (M100-S25, CLSI, 2015).

[1] = test system: H. influenzae AcrA- mutant; test: microbe, parasite or virus in culture; format: cell-based; conditions: Haemophilus influenzae
Procedure: (§2) The bacterial reference strains used in this study were purchased from ATCC (American Type Culture Collection) via LGC Standards (Middlesex, UK). […] Clinical MDR isolates were provided by Aptuit, the IHMA Europa Sàrl repository (Epalinges, Switzerland) and the Statens Serum Institute (Copenhagen, Denmark).
as §1

[2] = test system: K. pneumoniae AcrAB- mutant; test: microbe, parasite or virus in culture; format: cell-based; conditions: Klebsiella pneumoniae
Procedure: as §2, §1

[3] = test system: S. aureus clinical isolates (n = 10); test: microbe, parasite or virus in culture; format: cell-based, Staphylococcus aureus; conditions: S. aureus MDR clinical isolates (n = 10); for MIC50 / MIC90: Staphylococcus aureus; for MIC50: read-out: MIC50; for MIC90: read-out: MIC90
Procedure: as §2, §1
(§3) The results obtained using clinical isolates are reported as MIC50 and MIC90 values.

[4] = test system: C. difficile clinical isolates (n = 21); test: MIC, multidrug-resistant clinical isolates; format: cell-based, Clostridium difficile; conditions: Clostridioides difficile, C. difficile clinical isolates (n = 21); for MIC50: read-out: MIC50; for MIC90: read-out: MIC90; for MIC: read-out: MIC range
Procedure: as §2, §1, §3

[5] = test system: E. coli clinical isolates (n = 36); test: MIC, multidrug-resistant clinical isolates; format: cell-based, Escherichia coli; conditions: Escherichia coli, E. coli MDR clinical isolates (n = 36); for MIC50: read-out: MIC50; for MIC90: read-out: MIC90
Procedure: as §2, §1, §3

[6] = test system: A. baumannii clinical isolates (n = 10); test: microbe, parasite or virus in culture; format: cell-based, Acinetobacter baumannii; conditions: for MIC50 / MIC90: Acinetobacter baumannii
Procedure: as §2, §1, §3

COc1cnc2ncc(=O)n([C@H]3CC[C@H](NCc4cc5c(=O)oc6ccc(F)cc6c5[nH]4)CC3)c2c1 [Compound 5, 8-Fluoro-2-({[trans-4-(7-methoxy-2-oxopyrido[2,3-b]pyrazin-1(2H)-yl)cyclohexyl]amino}methyl)[1]benzopyrano[4,3-b]pyrrol-4(1H)-one hydrochloride]
MIC (A. baumannii APV00473): 0.5 µg/mL
MIC (A. baumannii ATCC 19606): 1 µg/mL
MIC (E. coli 4SI): 0.5 µg/mL
MIC (S. pyogenes APV00074): 0.12 µg/mL
MIC (S. pyogenes APV00083): ≤ 0.06 µg/mL
MIC (C. difficile ATCC 700057): 0.25 µg/mL
MIC [1]: ≤ 0.016 µg/mL
MIC [2]: 0.03 µg/mL
MIC range [3]: ≤0.06 to 0.5 µg/mL
MIC50 [3]: 0.12 µg/mL
MIC90 [3]: 0.5 µg/mL
MIC50 [4]: 0.5 µg/mL
MIC90 [4]: 1 µg/mL
MIC [4]: 0.06 to 1 µg/mL
MIC [5]: 0.5 to 16 µg/mL
MIC50 [5]: 2 µg/mL
MIC90 [5]: 4 µg/mL
MIC range [6]: 0.25 to 1 µg/mL
MIC50 [6]: 0.5 µg/mL
MIC90 [6]: 1 µg/mL

Cl.O=c1oc2ccc(F)cc2c2[nH]c(CN[C@H]3CC[C@H](n4c(=O)ccc5ccc(F)cc54)CC3)cc12 [Compound 6, 8-fluoro-2-({[trans-4-(7-fluoro-2-oxoquinolin-1(2H)-yl)cyclohexyl]amino}methyl)[1]benzopyrano[4,3-b]pyrrol-4(1H)-one hydrochloride]
MIC (C. difficile ATCC 700057): 0.5 µg/mL
MIC50 [4]: 0.25 µg/mL
MIC90 [4]: 0.25 µg/mL
MIC [4]: 0.06 to 0.25 µg/mL
MIC [5]: 0.25 to 4 µg/mL
MIC50 [5]: 2 µg/mL
MIC90 [5]: 4 µg/mL

Cl.O=c1oc2ccc(F)cc2c2[nH]c(CN[C@H]3CC[C@H](n4c(=O)ccc5ncc(F)cc54)CC3)cc12 [Compound 3, 8-fluoro-2-({[trans-4-(7-fluoro-2-oxo-1,5-naphthyridin-1(2H)-yl)cyclohexyl]amino}methyl)[1]benzopyrano[4,3-b]pyrrol-4(1H)-one hydrochloride]
MIC (A. baumannii APV00473): ≤ 0.06 µg/mL
MIC (A. baumannii ATCC 19606): ≤ 0.06 µg/mL
MIC (E. coli 4SI): 0.12 µg/mL
MIC (S. pyogenes APV00074): ≤ 0.06 µg/mL
MIC (S. pyogenes APV00083): 0.12 µg/mL
MIC (C. difficile ATCC 700057): 0.25 µg/mL
MIC [1]: 0.06 µg/mL
MIC [2]: ≤ 0.016 µg/mL
MIC range [3]: ≤0.06 µg/mL
MIC50 [3]: ≤ 0.06 µg/mL
MIC90 [3]: ≤ 0.06 µg/mL
MIC50 [4]: 0.12 µg/mL
MIC90 [4]: 0.25 µg/mL
MIC [4]: 0.06 to 0.25 µg/mL
MIC [5]: 0.25 to 4 µg/mL
MIC50 [5]: 1 µg/mL
MIC90 [5]: 2 µg/mL
MIC range [6]: ≤0.06 to 0.12 µg/mL
MIC50 [6]: ≤ 0.06 µg/mL
MIC90 [6]: 0.12 µg/mL
